# From US7232852B2, “Photopolymerizable compositions that include alicyclic/aromatic dioxiranes and novel dioxiranyl tetraoxaspiro [5.5] undecanes” (Curators of the University of Missouri, priority 2002, dated 2007)
# Test: Solubility of TOSUs in oxirane coreactant systems
# Assay type: physicochemical
# Conditions: 25° C.
SMILES,Solubility in oxirane base UVR 6105,Solubility in oxirane base UVR 6105/PTHF (80/20) [wt %],Solubility in oxirane base BOCPE [wt %],Solubility in oxirane base BDDGE/PTHF (80/20) [wt %]
"C1=CCC(CC2COC3(OC2)OCC(CC2CC=CCC2)CO3)CC1 (stereo not shown) [BCHEM, 3,9-Bis(cyclohex-3-enylmethyl)-1,5,7,11-tetraoxaspiro[5,5]undecane]",15–25 wt %,25,,
"CC1CC2OC2CC1CC1COC2(OC1)OCC(CC1CC3OC3CC1C)CO2 (stereo not shown) [BMOCHM, 3,9-bis[(4-methyl-7-oxabicyclo[4.1.0]hept-3-yl)methyl]-1,5,7,11-tetraoxaspiro[5,5]undecane]",30 wt %,25,<10,
"C1CC2OC2CC1CC1COC2(OC1)OCC(CC1CCC3OC3C1)CO2 (stereo not shown) [BOCHM, 3,9-bis[(7-oxabicyclo[4.1.0]hept-3-yl)methyl]-1,5,7,11-tetraoxaspiro[5.5]undecane]",30 wt %,25,<10,
"CCC1(CC)COC2(COC3(CCC4OC4C3)OC2)OC1 (stereo not shown) [DEODSH, 5,5-diethyl-19-oxdispiro[1,3-dioxane-2,5′-1,3-dioxane-2′,3″-bicyclo[4.1.0]heptane]]",,40,>10,
"C1CC2(COC3(OC2)OCC2(CCC4OC4C2)CO3)CC2OC12 (stereo not shown) [DOTSHH, 7,26-dioxatrispiro[bicycle[4.1.0]heptane-3,5′-1,3-dioxane-2′2″-1,3-dioxane-5″,4′″-bicyclo[4.1.0]heptane]]",,<5,10,5
"C1OC2(OCC13CC1OC1C3)OCC1(CO2)CC2OC2C1 (stereo not shown) [DOTSHX, 6,24-dioxatrispiro[bicyclo[3.1.0]hexane-3.5′-1,3-dioxane-2.2′-1,3-dioxane-5″3′″-bicyclo[3.1.0]hexane]]",,,<5,<5

# Test: Photoinitiated solution homopolymerization of BMOCHM-TOSU (FTIR, gel point)
# Assay type: physicochemical
# Conditions: post irradiation, 20 wt % in methylene chloride
# Description: The effect of irradiation time on the photoinitated homopolymerization of BMOCHM-TOSU monomer (20 wt % in methylene chloride) was evaluated by gel point determination and by FTIR spectroscopy. Selected IR absorption bands in the reaction mixture characteristic of hydroxyl, carbonyl and oxirane groups were monitored as a function of irradiation time. […] These observations indicate the possibility of homopolymer formation. The mixture gelled 1.5 min post irradiation.
row,SMILES,gel point (mixture gelled) [min]
1,"CC1CC2OC2CC1CC1COC2(OC1)OCC(CC1CC3OC3CC1C)CO2 (stereo not shown) [BMOCHM, 3,9-bis[(4-methyl-7-oxabicyclo[4.1.0]hept-3-yl)methyl]-1,5,7,11-tetraoxaspiro[5,5]undecane]",1.5
